pIC50: −log10 of the molar value. Active and inactive are the calls of the source. No rule for the calls is given here.
What was measured:
[1] = test system: Salmonella Typhi WT vs phoP-, polymyxin IC50 shift, OD600 24 h; assay: compound effect on polymyxin resistance, Typhi, OD600 (AID 2612)
[2] = as above; conditions: Salmonella Typhi WT vs phoP-, polymyxin IC50 shift, OD600 24 h, at 150 µM; for polymyxin IC50 shift difference (WT - phoP-): stronger effect = higher value; for IC50 shift: measured here: polymyxin IC50 shift

Compound: O=C(Nc1ccc(Cl)cc1)N1CCCN(Cc2ccccc2F)C1
- pIC50 ([1]; WT polymyxin IC50 at 150 uM): 4.83
- pIC50 ([1]; phoP- polymyxin IC50 at 150 uM): 5.51
- polymyxin IC50 shift difference (WT - phoP-) [2]: -11.9 (inactive)
- IC50 shift ([2]; WT strain): -12.1
- IC50 shift ([2]; phoP- strain): -0.267

Compound: S=C(NCc1ccc(Cl)cc1)Nc1ccncc1
- pIC50 [1]: 4.70
- pIC50 ([1]; WT polymyxin IC50 at 150 uM): 6.17
- pIC50 ([1]; phoP- polymyxin IC50 at 150 uM): 4.54
- IC50 shift ([2]; WT strain): -0.561
- IC50 shift ([2]; phoP- strain): -25.9

Compound: COc1c(N2CCN(C(=S)NCc3ccccc3)C(C)C2)c(F)cc2c(=O)c(C(=O)O)cn(C3CC3)c12 (centres undefined)
- pIC50 ([1]; WT polymyxin IC50 at 150 uM): 5.14
- pIC50 ([1]; phoP- polymyxin IC50 at 150 uM): 5.42
- polymyxin IC50 shift difference (WT - phoP-) [2]: -3.42 (inactive)
- IC50 shift ([2]; WT strain): -4.5
- IC50 shift ([2]; phoP- strain): -1.08

Compound: Cc1ccc(Nc2cc(C)c3c(O)cccc3n2)cc1C
- pIC50 ([1]; phoP- polymyxin IC50 at 150 uM): 6.05
- polymyxin IC50 shift difference (WT - phoP-) [2]: 0.62 (inactive)
- IC50 shift ([2]; WT strain): 2.64
- IC50 shift ([2]; phoP- strain): 2.02

Compound: O=C1C2=C(Nc3ccccc3SC2c2ccco2)c2ccccc21 (centres undefined)
- pIC50 [1]: 5.40
- pIC50 ([1]; WT polymyxin IC50 at 150 uM): 5.83
- pIC50 ([1]; phoP- polymyxin IC50 at 150 uM): 4.56
- IC50 shift ([2]; WT strain): 1.28
- IC50 shift ([2]; phoP- strain): -24.4

Compound: CCn1cc(C(=O)O)c(=O)c2cc(F)c(N3CCN(C(=S)NC(=O)c4ccccc4Cl)CC3)cc21
- pIC50 ([1]; WT polymyxin IC50 at 150 uM): 5.46
- pIC50 ([1]; phoP- polymyxin IC50 at 150 uM): 7.47
- polymyxin IC50 shift difference (WT - phoP-) [2]: -3.77 (inactive)
- IC50 shift ([2]; WT strain): -1.35
- IC50 shift ([2]; phoP- strain): 2.42

Source: PubChem BioAssay AID2612 (Southern Research Specialized Biocontainment Screening …, 2010)
